Experimental data: US20260265262A1, “CDK2 INHIBITORS AND METHODS OF USING THE SAME” (Cedilla Therapeutics, Inc., priority 2022, published 2026)

How the values were obtained:
CDK2/Cyclin E1 [1] = molecular target: T1, CDK2/Cyclin E1 (Homo sapiens, UniProt P24941); experiment: ADP-Glo Luminescent Kinase Assay (CDK2/E1-37C); assay type: biochemical; details: 0.18 nM CDK2/Cyclin E1, 100 μM ATP, 1.5 μM Histone H1, 37° C., 60 min pre-incubation; read-out: ADPGLO (CDK2/E1-37C): IC50
How it was run: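 Human CDK2/Cyclin E1 preincubated with inhibitor 60 min at 37 °C, then reacted 90 min at 37 °C with final 0.18 nM enzyme, 100 μM ATP, 1.5 μM Histone H1 in HEPES pH 7.5 buffer. ADP formed read by ADP-Glo luminescence; IC50 from four-parameter fit.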

Kuramochi cells = experiment: IncuCyte cell proliferation assay; assay type: cell-based; details: Kuramochi cells labeled with mApple-H2B, cell count 0 to 72 hours, 20 μM top concentration; read-out: IncuCyte Kuramochi RB-WT: IC50
How it was run: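 Kuramochi cells expressing mApple-H2B were treated with a 10-point, ½-log dilution series (top 20 μM). Fluorescent nuclei were counted by IncuCyte imaging at 0 and 72 h. The fold change in cell count was normalized to DMSO wells and fitted to dose-response curves to give […].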

CDK2/Cyclin E1 [2] = molecular target: T1, CDK2/Cyclin E1; experiment: CDK2/Cyclin E1 Caliper LabChip EZ Reader mobility shift assay; assay type: biochemical; details: 2.5 nM CDK2/Cyclin E1, 100 μM ATP, 1.5 μM fluorescent peptide, 30 min pre-incubation; read-out: Caliper Assay (CDK2/CCNE1): IC50
Protocol: Inhibition of CDK2/Cyclin E1 activity in the presence of compounds of the present disclosure was evaluated using a CaliperLabChip® EZ Reader mobility shift assay. In the assay, CDK2/Cyclin E1 (Eurofins, 14-475) catalyzed the phosphorylation of a fluorescently tagged peptide 5-FAM-QSPKKG-CONH2 (PerkinEliner, FL Peptide 18) which induced a difference in capillary electrophoresis mobility. The peptide substrate and product were measured, and the conversion ratio was used to determine the inhibition (as % activity and IC50 values) of CDK2/Cyclin E1. Reactions contained 50 mM HEPES pH 7.5, 10 mM MgCl2, 1 mM EDTA, 2 mM DTT, 0.01% Brij35, 0.5 mg/mL BSA, 0.1% DMSO, 2.5 nM CDK2/Cyclin E1, 100 μM ATP, and 1.5 μM fluorescent peptide substrate.
Dose titrations of inhibitors in 100% DMSO were combined with 3.25 nM CDK2/Cyclin E1 and 130 μM of ATP in reaction buffer. The mixtures were incubated for 30 minutes before the addition of fluorescent peptide substrate to initiate the kinase reaction. The final conditions were 2.5 nM CDK2/Cyclin E1, 100 μM ATP, and 1.5 μM fluorescent peptide. The reactions were stopped after 100 minutes with the addition of EDTA (400 mM final EDTA concentration). The stopped reactions were analyzed on a Caliper LabChip® EZ Reader II. The conversion ratios were normalized to yield % activity, plotted against compound concentration, and fit to a four-parameter equation to determine the IC50 for each compound.

Structure (SMILES)	IC50 (CDK2/Cyclin E1 [1]) [nM]	IC50 (Kuramochi cells) [nM]	IC50 (CDK2/Cyclin E1 [2]) [nM]
C[C@@H](OCC1CCC2(CCC2)CC1)[C@H](NC(=O)[C@@H]1CN(C(=O)c2cnn(Cc3ccccc3)c2)CC12CN(C(=O)[C@H]1CC1(C)C)C2)C(=O)O [Example I-40, N—((S)-6-(1-benzyl-1H-pyrazole-4-carbonyl)-2-((S)-2,2-dimethylcyclopropane-1-carbonyl)-2,6-diazaspiro[3.4]octane-8-carbonyl)-O-(spiro[3.5]nonan-7-ylmethyl)-L-threonine]	< 500	> 20000	< 10
C[C@@H](OCC1CCCCC1)[C@H](NC(=O)[C@@H]1CN(C(=O)c2cnn(Cc3ccccc3)c2)CC12CN(C(=O)[C@H]1CC1(C)C)C2)C(=O)NCCC(=O)O [Example I-41, 3-((2S,3R)-2-((S)-6-(1-benzyl-1H-pyrazole-4-carbonyl)-2-((S)-2,2-dimethylcyclopropane-1-carbonyl)-2,6-diazaspiro[3.4]octane-8-carboxamido)-3-(cyclohexylmethoxy)butanamido)propanoic acid]	< 500	> 20000	< 10
COC(=O)CCNC(=O)[C@@H](NC(=O)[C@@H]1CN(C(=O)c2cnn(Cc3ccccc3)c2)CC12CN(C(=O)[C@H]1CC1(C)C)C2)[C@@H](C)OCC1CCCCC1 [Example I-42]	< 500	< 500	< 10
COC(=O)[C@@H](NC(=O)[C@@H]1CN(C(=O)c2cnn(Cc3ccccc3)c2)CC12CN(C(=O)[C@H]1CC1(C)C)C2)[C@@H](C)OCC1CCC2(CCC2)CC1 [Example I-43]	< 500	500 to 5000	< 10
C[C@@H](OCC12CCC(CC1)OC2)[C@H](NC(=O)[C@@H]1CN(C(=O)c2cncs2)CC12CN(CC1CCCO1)C2)C(=O)N1CCC(c2nccs2)CC1 (stereo partly drawn) [Example I-44, (8S)—N-((2S,3R)-3-((2-oxabicyclo[2.2.2]octan-4-yl)methoxy)-1-oxo-1-(4-(thiazol-2-yl)piperidin-1-yl)butan-2-yl)-2-((tetrahydrofuran-2-yl)methyl)-6-(thiazole-5-carbonyl)-2,6-diazaspiro[3.4]octane-8-carboxamide]	> 100000	> 20000	> 10000
C[C@@H](OCC1CCCCC1)[C@H](NC(=O)[C@@H]1CN(C(=O)c2cnn(Cc3ccccc3)c2)CC12CN(C(=O)[C@H]1CC1(C)C)C2)C(=O)N1CCC(c2ccc(C(=O)O)cc2)CC1 [Example I-45]	< 500	500 to 5000	< 10
C[C@@H](OCC1CCCCC1)[C@H](NC(=O)[C@@H]1CN(C(=O)c2cnn(Cc3ccccc3)c2)CC12CN(C(=O)[C@H]1CC1(C)C)C2)C(=O)N1CCC[C@@H](C(=O)O)C1 [Example I-46]	< 500	> 20000	< 10
CCOC(=O)C(F)(F)CNC(=O)[C@@H](NC(=O)[C@@H]1CN(C(=O)c2cnn(Cc3ccccc3)c2)CC12CN(C(=O)[C@H]1CC1(C)C)C2)[C@@H](C)OCC1CCCCC1 [Example I-47, ethyl 3-((2S,3R)-2-((S)-6-(1-benzyl-1H-pyrazole-4-carbonyl)-2-((S)-2,2-dimethylcyclopropane-1-carbonyl)-2,6-diazaspiro[3.4]octane-8-carboxamido)-3-(cyclohexylmethoxy)butanamido)-2,2-difluoropropanoate]	< 500	5000 to 20000	< 10
CNC(=O)[C@@H](NC(=O)[C@@H]1CN(C(=O)c2cncs2)CC12CN(CC1CCCO1)C2)[C@@H](C)OCC1(CO)CC=CCC1 (stereo partly drawn) [Example I-49]	> 10000	> 20000	100 to 1000
